The target in this assay is recombinant human S1P1 receptor (Homo sapiens, UniProt P21453). Put plainly: GTPγS assay to determine EC50 values. The assay is classed as biochemical. The note with it: GTPγS binding, membrane preparations of CHO cells expressing recombinant human S1P1 receptor. As for the experimental part: GTPγS Assay to Determine EC50 Values
GTPγS binding assays are performed in 96 well microtiter plates (Nunc, 442587) in a final volume of 200 μl, using membrane preparations of CHO cells expressing recombinant human S1P1 receptor. Assay conditions are 20 mM Hepes (Fluka, 54461), 100 mM NaCl (Fluka, 71378), 5 mM MgCl2 (Fluka, 63064), 0.1% BSA (Calbiochem, 126609), 1 μM GDP (Sigma, G-7127), 2.5% DMSO (Fluka, 41644), 50 pM ^35S-GTPγS (Amersham Biosciences, SJ1320). The pH is 7.4. Test compounds are dissolved and diluted in 100% DMSO and pre-incubated at room temperature for 30 min in 150 μl of the above assay buffer, in the absence of ^35S-GTPγS. After addition of 50 μl of ^35S-GTPγS, the assay is incubated for 1 h at rt. The assay is terminated by transfer of the reaction mixture to a Multiscreen plate (Millipore, MAHFC1H60) using a cell harvester from Packard Biosciences, and the plates are washed with ice-cold 10 mM Na2HPO4/NaH2PO4 (70%/30%), dried, sealed at the bottom and, after addition of 25 μl MicroScint20 (Packard Biosciences, order#6013621), sealed on the top. Membrane-bound ^35S-GTPγS is measured with a TopCount from Packard Biosciences.
EC50 is the concentration of agonist inducing 50% of the maximal specific ^35S-GTPγS binding. Specific binding is determined by subtracting non-specific binding from maximal binding. Maximal binding is the amount of cpm bound to the Multiscreen plate in the presence of 10 μM of S1P. Non-specific binding is the amount of binding in the absence of an agonist in the assay.
The EC50 values were determined according to the method described above.
Background: Binding of GTPγS marks nucleotide exchange on a G protein.

Sequence of recombinant human S1P1 receptor (P21453 whole entry): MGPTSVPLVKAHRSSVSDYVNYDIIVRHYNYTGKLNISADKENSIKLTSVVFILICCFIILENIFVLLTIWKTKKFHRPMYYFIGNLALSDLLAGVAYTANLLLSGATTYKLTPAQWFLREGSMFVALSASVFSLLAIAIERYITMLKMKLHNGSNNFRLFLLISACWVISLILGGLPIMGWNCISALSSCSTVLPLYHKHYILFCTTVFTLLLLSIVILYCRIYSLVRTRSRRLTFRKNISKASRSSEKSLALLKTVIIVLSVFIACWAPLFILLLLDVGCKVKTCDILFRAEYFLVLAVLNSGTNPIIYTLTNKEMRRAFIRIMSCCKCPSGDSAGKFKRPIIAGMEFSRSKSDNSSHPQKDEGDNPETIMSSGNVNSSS

As usually defined, the EC50 is the concentration needed to bring the measured effect to its halfway point. As for `COc1cc(CCC(=O)c2sc(C)c3c2CCC(C)(C)C3)cc(Cl)c1OCC(O)CNC(=O)CO` (stereo not shown) [Example 149], the half-maximal effective concentration (EC50) stood at 5.1 nM.
Turning to `CCCc1sc(C(=O)CCc2cc(C)c(OC[C@H](O)CO)c(C)c2)c2c1CC(C)(C)CC2` [Example 414], the half-maximal effective concentration (EC50) came to 4.2 nM.
Under `Cc1cc(C)cc(NCC(=O)c2sc(C(F)(F)F)c3c2CCC(C)(C)C3)c1` [Example 517] stands 9.7 nM; under `CCc1sc(C(=O)CCc2cc(C)c(OCCNC(C)C)c(C)c2)c2c1CC(C)(C)CC2` [Example 114], 4.1 nM.
Under `COc1cc(CCC(=O)c2sc(C)c3c2CCC(C)(C)C3)cc(Cl)c1OCC(O)CNCCC(=O)O` (stereo not shown) [Example 62] stands 5.9 nM; under `Cc1cc(-c2noc(-c3scc4c3CCC3(CC3)C4)n2)cc(C)c1OCC(O)CNC(=O)CO` (stereo not shown) [Example 457], 6.2 nM.
Under `CCc1sc(C(=O)CCc2cc(C)c(OCC(O)CNC(CO)CO)c(C)c2)c2c1CC(C)(C)CC2` (stereo not shown) [Example 77] stands 1.8 nM.
On to `CCc1sc(C(=O)CCc2cc(C)c(OCC(O)CNCCN)c(C)c2)c2c1CC(C)(C)CC2` (stereo not shown) [Example 79], for which the EC50 stood at 3.7 nM.
Under `CCc1sc(C(=O)CCc2cc(Cl)c(OCCNC(=O)CNC)c(OC)c2)c2c1CC(C)(C)CC2` [Example 247] stands 3.1 nM; under `Cc1cc(-c2noc(-c3scc4c3CCC(C)(C)C4)n2)cc(C)c1OCC(O)CNC(=O)CO` (stereo not shown) [Example 129], 3.8 nM.
The same measure for `CCc1sc(C(=O)CCc2cc(C)c(OCC(O)CNC(=O)CN)c(Cl)c2)c2c1CC(C)(C)CC2` (stereo not shown) [Example 312]: 0.8 nM.
`Cc1cc(CCC(=O)c2sc(C)c3c2CCC(C)(C)C3)cc(C)c1OCC(O)CNCCC(=O)O` (stereo not shown) [Example 41]: the EC50 was 2.8 nM.
The same measure for `CCc1sc(C(=O)CCc2ccc(S(=O)(=O)NCCN)cc2)c2c1CC(C)(C)CC2` [Example 356, N-(2-amino-ethyl)-4-[3-(3-ethyl-5,5-dimethyl-4,5,6,7-tetrahydro-benzo[c]thiophen-1-yl)-3-oxo-propyl]-benzenesulfonamide]: 8 nM.
Under `CCc1sc(C(=O)CCc2cc(C)c(OCC(O)CNCCC(=O)O)c(C)c2)c2c1CC(C)(C)CC2` (stereo not shown) [Example 80] stands 0.6 nM; under `CCc1cc(CCC(=O)c2sc(CC)c3c2CCC(C)(C)C3)cc(C)c1CCCNC(=O)CCNC` [Example 351], 3.4 nM; under `CCc1sc(C(=O)/C=C/c2cc(C)c(O)c(C)c2)c2c1CC(CC)(CC)CC2` [Example 423, 3-(4-Hydroxy-3,5-dimethyl-phenyl)-1-(3,5,5-triethyl-4,5,6,7-tetrahydro-benzo[c]thiophen-1-yl)-propenone], 7.6 nM.
The same measure for `CCc1sc(C(=O)CCc2cc(C)c(OCC(O)CN3CC(C(=O)O)C3)c(C)c2)c2c1CC(C)(C)CC2` (stereo not shown) [Example 296]: 1 nM; for `CCc1sc(C(=O)CCc2cc(C)c(OCC(O)CN)c(C)c2)c2c1CC(C)(C)CC2` (stereo not shown) [Example 271]: 1.7 nM.
Take `Cc1cc(CCC(=O)c2sc(C(F)(F)F)c3c2CCC(C)(C)C3)cc(C)c1NCC(O)CO` (stereo not shown) [Example 501, 3-[4-(2,3-Dihydroxy-propylamino)-3,5-dimethyl-phenyl]-1-(5,5-dimethyl-3-trifluoromethyl-4,5,6,7-tetrahydro-benzo[c]thiophen-1-yl)-propan-1-one]: the EC50 worked out at 2.6 nM.
With `CCc1sc(C(=O)CCc2cc(C)c(OCC(O)COC)c(C)c2)c2c1CC(C)(C)CC2` (stereo not shown) [Example 71], the EC50 was 5.9 nM.
Under `CCc1cc(CCC(=O)c2sc(CC)c3c2CCC(C)(C)C3)cc(C)c1CCCN` [Example 339, 3-[4-(3-Amino-propyl)-3-ethyl-5-methyl-phenyl]-1-(3-ethyl-5,5-dimethyl-4,5,6,7-tetrahydro-benzo[c]thiophen-1-yl)-propan-1-one] stands 1.8 nM; under `CCc1sc(C(=O)CCc2ccc(OCCO)cc2OC)c2c1CC(C)(C)CC2` [Example 210], 1.1 nM; under `CCc1cc(CCC(=O)c2sc(C(F)(F)F)c3c2CCC(C)(C)C3)cc(C)c1OCC(O)CNC(=O)CCO` (stereo not shown) [Example 489], 2.9 nM.
Regarding `CCc1sc(C(=O)CCc2ccc(OCCNS(C)(=O)=O)cc2OC)c2c1CC(C)(C)CC2` [Example 230], the EC50 was 2.9 nM.
The same measure for `CCc1sc(C(=O)CNc2ccccc2OC)c2c1CC(C)(C)CC2` [Example 378]: 6.1 nM.
Under `Cc1cc(CCC(=O)c2sc(C)c3c2CCC(C)(C)C3)cc(C)c1OC[C@@H](O)CO` [Example 27] stands 2.4 nM.
For the compound `CCc1sc(C(=O)CCc2ccc(OCCCNS(C)(=O)=O)cc2OC)c2c1CC(C)(C)CC2` [Example 269], the EC50 came to 1.8 nM.
Regarding `CCc1sc(C(=O)CCc2cc(C)c(OCCO)c(C)c2)c2c1CC(C)(C)CC2` [Example 66], the EC50 was 2.5 nM.

Source of the values: patent US8039644B2, “Hydrogenated benzo (C) thiophene derivatives as immunomodulators” (Actelion Pharmaceuticals Ltd., priority 2005, dated 2011).
